# Measurements from patent publication US20240350469A1, “TREATMENT OF LOWER RESPIRATORY TRACT INFECTION WITH TRADIPITANT” (Vanda Pharmaceuticals Inc., priority 2021, published 2024).
# Test system: severe or critical COVID-19 infection
# Assay: Randomized, double-blind, placebo-controlled study of tradipitant in hospitalized patients with COVID-19 pneumonia (interim analysis, ITT)
# Type: in vivo
# Details: for Ordinal Score at Day 7 = 7 (Not hospitalized), no. of patients / Ordinal Score at Day 28 = 1 (Death), % of patients / Ordinal Score at Day 28 = 1 (Death), no. of patients / Ordinal Score at Day 28 = 2 (Hospitalized, on invasive mechanical ventilation or ECMO), % of patients / Ordinal Score at Day 28 = 2 (Hospitalized, on invasive mechanical ventilation or ECMO), no. of patients / Ordinal Score at Day 28 = 3 (Hospitalized, on non-invasive ventilation or high flow oxygen devices), % of patients / Ordinal Score at Day 28 = 3 (Hospitalized, on non-invasive ventilation or high flow oxygen devices), no. of patients / Ordinal Score at Day 28 = 4 (Hospitalized, requiring supplemental oxygen), % of patients / Ordinal Score at Day 28 = 4 (Hospitalized, requiring supplemental oxygen), no. of patients / Ordinal Score at Day 28 = 7 (Not hospitalized), % of patients / Ordinal Score at Day 28 = 7 (Not hospitalized), no. of patients / No. of deaths by day 7 / No. of deaths by day 28 / Ordinal Score at Day 7 = 1 (Death), % of patients / Ordinal Score at Day 7 = 1 (Death), no. of patients / Ordinal Score at Day 7 = 2 (Hospitalized, on invasive mechanical ventilation or ECMO), % of patients / Ordinal Score at Day 7 = 2 (Hospitalized, on invasive mechanical ventilation or ECMO), no. of patients / Ordinal Score at Day 7 = 3 (Hospitalized, on non-invasive ventilation or high flow oxygen devices), % of patients / Ordinal Score at Day 7 = 3 (Hospitalized, on non-invasive ventilation or high flow oxygen devices), no. of patients / Ordinal Score at Day 7 = 4 (Hospitalized, requiring supplemental oxygen), % of patients / Ordinal Score at Day 7 = 4 (Hospitalized, requiring supplemental oxygen), no. of patients / Ordinal Score at Day 7 = 5 (Hospitalized, not requiring supplemental oxygen), % of patients / Ordinal Score at Day 7 = 5 (Hospitalized, not requiring supplemental oxygen), no. of patients / Ordinal Score at Day 7 = 7 (Not hospitalized), % of patients: ITT
# [1] = ordinal score at baseline 3, tradipitant N = 13
# [2] = ordinal score at baseline 4, tradipitant N = 9
structure (smiles),measurement,setting,value
O=C(c1ccccc1Cl)c1cccnc1-c1nnn(Cc2cc(C(F)(F)F)cc(C(F)(F)F)c2)c1-c1ccncc1 [Tradipitant],"Ordinal Score at Day 7 = 7 (Not hospitalized), no. of patients",[1],1
same,"Ordinal Score at Day 28 = 1 (Death), % of patients",[1],(7.7) %
same,"Ordinal Score at Day 28 = 1 (Death), no. of patients",[1],1
same,"Ordinal Score at Day 28 = 2 (Hospitalized, on invasive mechanical ventilation or ECMO), % of patients",[1],(61.5) %
same,"Ordinal Score at Day 28 = 2 (Hospitalized, on invasive mechanical ventilation or ECMO), no. of patients",[1],8
same,"Ordinal Score at Day 28 = 3 (Hospitalized, on non-invasive ventilation or high flow oxygen devices), % of patients",[1],(0.0) %
same,"Ordinal Score at Day 28 = 3 (Hospitalized, on non-invasive ventilation or high flow oxygen devices), no. of patients",[1],0
same,"Ordinal Score at Day 28 = 4 (Hospitalized, requiring supplemental oxygen), % of patients",[1],(0.0) %
same,"Ordinal Score at Day 28 = 4 (Hospitalized, requiring supplemental oxygen), no. of patients",[1],0
same,"Ordinal Score at Day 28 = 7 (Not hospitalized), % of patients",[1],(30.8) %
same,"Ordinal Score at Day 28 = 7 (Not hospitalized), no. of patients",[1],4
same,No. of deaths by day 7,[2],1
same,No. of deaths by day 28,[2],1
same,"Ordinal Score at Day 7 = 1 (Death), % of patients",[2],(11.1) %
same,"Ordinal Score at Day 7 = 1 (Death), no. of patients",[2],1
same,"Ordinal Score at Day 7 = 2 (Hospitalized, on invasive mechanical ventilation or ECMO), % of patients",[2],(0.0) %
same,"Ordinal Score at Day 7 = 2 (Hospitalized, on invasive mechanical ventilation or ECMO), no. of patients",[2],0
same,"Ordinal Score at Day 7 = 3 (Hospitalized, on non-invasive ventilation or high flow oxygen devices), % of patients",[2],(11.1) %
same,"Ordinal Score at Day 7 = 3 (Hospitalized, on non-invasive ventilation or high flow oxygen devices), no. of patients",[2],1
same,"Ordinal Score at Day 7 = 4 (Hospitalized, requiring supplemental oxygen), % of patients",[2],(11.1) %
same,"Ordinal Score at Day 7 = 4 (Hospitalized, requiring supplemental oxygen), no. of patients",[2],1
same,"Ordinal Score at Day 7 = 5 (Hospitalized, not requiring supplemental oxygen), % of patients",[2],(0.0) %
same,"Ordinal Score at Day 7 = 5 (Hospitalized, not requiring supplemental oxygen), no. of patients",[2],0
same,"Ordinal Score at Day 7 = 7 (Not hospitalized), % of patients",[2],(66.7) %
same,"Ordinal Score at Day 7 = 7 (Not hospitalized), no. of patients",[2],6
same,"Ordinal Score at Day 28 = 1 (Death), % of patients",[2],(11.1) %
same,"Ordinal Score at Day 28 = 1 (Death), no. of patients",[2],1
same,"Ordinal Score at Day 28 = 2 (Hospitalized, on invasive mechanical ventilation or ECMO), % of patients",[2],(0.0) %
same,"Ordinal Score at Day 28 = 2 (Hospitalized, on invasive mechanical ventilation or ECMO), no. of patients",[2],0
same,"Ordinal Score at Day 28 = 3 (Hospitalized, on non-invasive ventilation or high flow oxygen devices), % of patients",[2],(11.1) %
same,"Ordinal Score at Day 28 = 3 (Hospitalized, on non-invasive ventilation or high flow oxygen devices), no. of patients",[2],1
same,"Ordinal Score at Day 28 = 4 (Hospitalized, requiring supplemental oxygen), % of patients",[2],(0.0) %
same,"Ordinal Score at Day 28 = 4 (Hospitalized, requiring supplemental oxygen), no. of patients",[2],0
same,"Ordinal Score at Day 28 = 7 (Not hospitalized), % of patients",[2],(77.8) %
same,"Ordinal Score at Day 28 = 7 (Not hospitalized), no. of patients",[2],7
same,No. of deaths by day 7,"overall, tradipitant N = 28",2
same,No. of deaths by day 28,"overall, tradipitant N = 28",4
same,"Ordinal Score at Day 7 = 1 (Death), % of patients","overall, tradipitant N = 28",(7.1) %
same,"Ordinal Score at Day 7 = 1 (Death), no. of patients","overall, tradipitant N = 28",2
same,"Ordinal Score at Day 7 = 2 (Hospitalized, on invasive mechanical ventilation or ECMO), % of patients","overall, tradipitant N = 28",(32.1) %
same,"Ordinal Score at Day 7 = 2 (Hospitalized, on invasive mechanical ventilation or ECMO), no. of patients","overall, tradipitant N = 28",9
same,"Ordinal Score at Day 7 = 3 (Hospitalized, on non-invasive ventilation or high flow oxygen devices), % of patients","overall, tradipitant N = 28",(14.3) %
same,"Ordinal Score at Day 7 = 3 (Hospitalized, on non-invasive ventilation or high flow oxygen devices), no. of patients","overall, tradipitant N = 28",4
same,"Ordinal Score at Day 7 = 4 (Hospitalized, requiring supplemental oxygen), % of patients","overall, tradipitant N = 28",(7.1) %
same,"Ordinal Score at Day 7 = 4 (Hospitalized, requiring supplemental oxygen), no. of patients","overall, tradipitant N = 28",2
same,"Ordinal Score at Day 7 = 5 (Hospitalized, not requiring supplemental oxygen), % of patients","overall, tradipitant N = 28",(7.1) %
same,"Ordinal Score at Day 7 = 5 (Hospitalized, not requiring supplemental oxygen), no. of patients","overall, tradipitant N = 28",2
same,"Ordinal Score at Day 7 = 7 (Not hospitalized), % of patients","overall, tradipitant N = 28",(32.1) %
same,"Ordinal Score at Day 7 = 7 (Not hospitalized), no. of patients","overall, tradipitant N = 28",9
same,"Ordinal Score at Day 28 = 1 (Death), % of patients","overall, tradipitant N = 28",(14.3) %
same,"Ordinal Score at Day 28 = 1 (Death), no. of patients","overall, tradipitant N = 28",4
same,"Ordinal Score at Day 28 = 2 (Hospitalized, on invasive mechanical ventilation or ECMO), % of patients","overall, tradipitant N = 28",(28.6) %
same,"Ordinal Score at Day 28 = 2 (Hospitalized, on invasive mechanical ventilation or ECMO), no. of patients","overall, tradipitant N = 28",8
same,"Ordinal Score at Day 28 = 3 (Hospitalized, on non-invasive ventilation or high flow oxygen devices), % of patients","overall, tradipitant N = 28",(3.6) %
same,"Ordinal Score at Day 28 = 3 (Hospitalized, on non-invasive ventilation or high flow oxygen devices), no. of patients","overall, tradipitant N = 28",1
same,"Ordinal Score at Day 28 = 4 (Hospitalized, requiring supplemental oxygen), % of patients","overall, tradipitant N = 28",(0.0) %
same,"Ordinal Score at Day 28 = 4 (Hospitalized, requiring supplemental oxygen), no. of patients","overall, tradipitant N = 28",0
same,"Ordinal Score at Day 28 = 7 (Not hospitalized), % of patients","overall, tradipitant N = 28",(53.6) %
same,"Ordinal Score at Day 28 = 7 (Not hospitalized), no. of patients","overall, tradipitant N = 28",15
same,Mortality rate,"tradipitant arm, interim analysis, placebo arm 16.6%, not statistically significant",14.2%
same,Patients showing clinical improvement (at least a 2 point improvement in the 7 point ordinal scale),"tradipitant arm, interim analysis, placebo arm 50%, not statistically significant",57%
same,Time to improvement analysis,"tradipitant vs placebo, FIG. 1, statistically significant at day 7",recover earlier than those receiving placebo
